Reference: PubChem BioAssay (NCI)
Values joined by “and” are separate entries in the source; they are usually repeats but may differ in a detail not shown here. Equal values may be shown once.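 All cell lines were grown in 96-well plates and treated with compound for 48 hours. Abbreviation: GI50, concentration required for 50% inhibition of growth. Definition used: TGI = concentration required for complete inhibition of growth.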 Where a SMILES comes first, the peptide text is derived from it. The star is where a group is joined. Boc = CC(C)(C)OC(=O)*; Bn = c1ccc(C*)cc1

How the values were obtained:
Assay in all cases: DTP human tumour cell line panel, 48 h
HCT-116 colon = tested on: HCT-116 colon
TK-10 renal = tested on: TK-10 renal
CCRF-CEM leukemia = tested on: CCRF-CEM leukemia
SNB-19 CNS = tested on: SNB-19 CNS
COLO 205 colon = tested on: COLO 205 colon
SR leukemia = tested on: SR leukemia
HCC-2998 colon = tested on: HCC-2998 colon
HOP-62 NSCLC = tested on: HOP-62 NSCLC
HOP-92 NSCLC = tested on: HOP-92 NSCLC
HCT-15 colon = tested on: HCT-15 colon
786-0 renal = tested on: 786-0 renal
SF-539 CNS = tested on: SF-539 CNS
UACC-257 melanoma = tested on: UACC-257 melanoma
MDA-N = tested on: MDA-N
OVCAR-4 ovarian = tested on: OVCAR-4 ovarian
MDA-MB-231 breast = tested on: MDA-MB-231 breast

Row | SMILES | TGI (HCT-116 colon) | TGI (TK-10 renal) | TGI (CCRF-CEM leukemia) | TGI (SNB-19 CNS) | TGI (COLO 205 colon) | TGI (SR leukemia) | TGI (HCC-2998 colon) | TGI (HOP-62 NSCLC) | TGI (HOP-92 NSCLC) | TGI (HCT-15 colon) | TGI (786-0 renal) | TGI (SF-539 CNS) | TGI (UACC-257 melanoma) | TGI (MDA-N) | TGI (OVCAR-4 ovarian) | TGI (MDA-MB-231 breast) | GI50 (TK-10 renal) | GI50 (CCRF-CEM leukemia) | GI50 (COLO 205 colon) | GI50 (HCC-2998 colon)
1 | CC(C)Cn1cnc2c(Cl)nc3ccccc3c21 | > 100 µM | > 100 µM | > 100 µM | > 100 µM | > 100 µM | 66.6 µM | > 100 µM | > 100 µM | > 100 µM | > 100 µM | > 100 µM | > 100 µM | > 100 µM | > 100 µM | > 100 µM | > 100 µM |  |  |  | 
2 | CN1CC2=C(NC(=S)NC2c2ccccc2Cl)/C(=C/c2ccccc2Cl)C1 (configuration not stated) | > 100 µM | > 100 µM | > 100 µM | > 100 µM | 60.4 µM | 70.5 µM | > 100 µM | > 100 µM | 99.1 µM | > 100 µM | > 100 µM | > 100 µM | > 100 µM | > 100 µM | 76.7 µM | > 100 µM |  |  |  | 
3 | Cc1ccc(C(=O)Oc2ccc(/C=C3\CCC/C(=C\c4ccc(OC(=O)c5ccc(C)cc5)cc4)C3=O)cc2)cc1 | > 100 µM | > 100 µM | > 100 µM | > 100 µM | > 100 µM | > 100 µM | > 100 µM | > 100 µM | > 100 µM | > 100 µM | > 100 µM | > 100 µM | > 100 µM | > 100 µM | > 100 µM | > 100 µM |  |  |  | 
4 | CNC(=O)C(CC(C)C)NC(=O)C(C)NC(=O)C(Cc1ccc(OCc2ccccc2)cc1)NC(=O)C(COCc1ccccc1)NC(=O)OC(C)(C)C (configuration not stated) (Boc-S(Bn)Y(Bn)AL-NHMe; configuration not given here) | 20.1 µM and 20.5 µM | > 100 µM | 18.9 µM and 39.6 µM | > 58 µM and 36.9 µM | 38.3 µM and 9.52 µM | > 46.1 µM and 86.9 µM | > 87.3 µM and 9.17 µM | > 53.2 µM and 38.1 µM | > 80.8 µM and 51.7 µM | > 100 µM | 54.9 µM and 39.4 µM | > 57.8 µM | > 100 µM | 30 µM and 30.9 µM | 41.2 µM and 45.4 µM | 35.7 µM and 36 µM | > 73.8 µM and 29.1 µM | 4.39 µM and 10.5 µM | 17.3 µM and 2.11 µM | 29.3 µM and 3.13 µM
5 | Cc1ccsc1C(=S)Nc1ccc(Cl)c(/C=N/OC(C)C)c1 | > 100 µM | > 100 µM | > 100 µM | > 100 µM | 47.3 µM | 48.7 µM | 64.3 µM | > 100 µM | > 100 µM | > 100 µM | > 100 µM | > 100 µM | > 100 µM | > 100 µM | 98.9 µM | > 100 µM |  |  |  | 
6 | O=[N+]([O-])C(/C=C(\Cl)[N+](=O)[O-])=C(N1CCCCC1)N1CCCCC1 | 62.4 µM | > 100 µM | 59 µM | > 100 µM | 55.5 µM | 51.1 µM | > 100 µM | > 100 µM | > 100 µM | 68 µM | > 100 µM | 56.7 µM | 69.2 µM | 41 µM | > 100 µM | > 100 µM |  |  |  | 
7 | COc1ccc2c(c1OC)C(=O)N/C2=C\c1c(CCN(C)C)cc2c(c1OC)OCO2 | > 100 µM | > 100 µM | > 100 µM | > 100 µM | > 100 µM | > 100 µM | > 100 µM | > 100 µM | > 100 µM | > 100 µM | > 100 µM | > 100 µM | > 100 µM | > 100 µM | > 100 µM | > 100 µM |  |  |  | 
8 | CCOC(=O)c1sc2nc1CSc1sc(=S)sc1SCc1nc(sc1C(=O)OCC)-c1nc(c(C(=O)OCC)s1)CSc1sc(=S)sc1SCc1nc-2sc1C(=O)OCC | > 10 µM | > 10 µM | > 10 µM | > 10 µM | > 10 µM | > 10 µM | > 10 µM | > 10 µM | > 10 µM | > 10 µM | > 10 µM | > 10 µM | > 10 µM | > 10 µM | > 10 µM | > 10 µM |  |  |  | 
9 | CC(=O)NC1COC(COC(=O)CCCCCCCCCCNC(=O)c2ccc([N+](=O)[O-])c3c(=O)c4ccccc4[nH]c23)C(O)C1OC(C)C(=O)NC(C(=O)NC(CCC(N)=O)C(=O)OCc1ccccc1)C(C)C (configuration not stated) | 42.7 µM | 54.4 µM | 62.7 µM | 18.5 µM | 41.2 µM | 46.5 µM | 14.3 µM | 24.4 µM | 31.5 µM | 50.2 µM | > 58.6 µM | 58.3 µM | 38.6 µM | 75 µM | 30.3 µM | > 100 µM |  |  |  | 
10 | Cc1cccc(C)c1N=Nc1ccc(O)c(CN(C)C)c1 | > 100 µM | > 100 µM | > 100 µM | > 100 µM | 44.8 µM | > 100 µM | 48.8 µM | > 100 µM | > 100 µM | > 100 µM | > 100 µM | > 100 µM | > 100 µM | > 100 µM | > 100 µM | > 100 µM |  |  |  | 
11 | CN(C)CC1CCC/C(=C\c2ccccc2)C1=O (configuration not stated) | 2.91 µM | 7.85 µM | > 100 µM | 30.5 µM | 5.27 µM | > 100 µM | 29 µM | 34.2 µM | 8.26 µM | 4.67 µM | 6.9 µM | 14.3 µM | 7.45 µM | 8.93 µM | 3.17 µM | 4.18 µM |  |  |  | 
12 | O=S(=O)(CCC[C@H]1[C@@H](CCOCc2ccccc2)C2CCCN1O2)c1ccccc1 (some centres not stated) | > 100 µM | > 100 µM | > 100 µM | > 100 µM | > 100 µM | > 100 µM | > 100 µM | > 100 µM | > 100 µM | > 100 µM | > 100 µM | > 100 µM | > 100 µM | > 100 µM | > 100 µM | > 100 µM |  |  |  | 
13 | COc1cc(CNc2c3ccccc3nc3ccccc23)cc(OC)c1OC | 11.2 µM | 37.5 µM | > 23.2 µM | 24.3 µM | 7.14 µM | 7.58 µM | 11.9 µM | 11.7 µM | 16.7 µM | 14 µM | 14.3 µM | 15.7 µM | 11.2 µM | 13 µM | 20.3 µM | 23.6 µM |  |  |  | 
